What was measured:
medaka ARβ (mArβ) [1] = biological target: T1, medaka ARβ (mArβ) (Oryzias latipes, UniProt D1MV73); experiment: Medaka ARβ reporter gene assay, agonist assay; type: cell-based, Japanese medaka (Oryzias latipes); settings: MAC = 1.0 × 10^−5 M
T1 sequence (D1MV73 1-744): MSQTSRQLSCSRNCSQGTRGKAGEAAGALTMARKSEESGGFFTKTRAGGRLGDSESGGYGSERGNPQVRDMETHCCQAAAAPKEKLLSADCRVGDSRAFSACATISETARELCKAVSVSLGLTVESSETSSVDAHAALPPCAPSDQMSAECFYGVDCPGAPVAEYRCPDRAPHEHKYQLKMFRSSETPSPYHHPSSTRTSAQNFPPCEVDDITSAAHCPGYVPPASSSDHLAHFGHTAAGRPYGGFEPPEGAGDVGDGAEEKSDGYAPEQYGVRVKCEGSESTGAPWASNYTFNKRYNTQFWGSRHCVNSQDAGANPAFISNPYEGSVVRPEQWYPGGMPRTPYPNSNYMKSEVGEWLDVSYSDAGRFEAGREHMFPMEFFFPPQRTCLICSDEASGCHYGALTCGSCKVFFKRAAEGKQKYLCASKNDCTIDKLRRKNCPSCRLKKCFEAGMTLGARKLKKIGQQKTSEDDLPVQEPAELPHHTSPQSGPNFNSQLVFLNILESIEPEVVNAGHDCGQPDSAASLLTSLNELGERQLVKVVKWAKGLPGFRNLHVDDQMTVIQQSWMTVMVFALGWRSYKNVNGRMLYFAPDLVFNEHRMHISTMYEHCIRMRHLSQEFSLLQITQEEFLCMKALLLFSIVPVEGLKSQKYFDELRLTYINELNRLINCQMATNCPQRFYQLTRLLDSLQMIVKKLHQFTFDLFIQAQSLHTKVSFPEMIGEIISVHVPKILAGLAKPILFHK

medaka Esr1 (mEsr1) [2] = biological target: T2, medaka Esr1 (mEsr1) (Oryzias latipes, UniProt P50241); experiment: Medaka Esr1 reporter gene assay, antagonist assay; type: cell-based, Japanese medaka (Oryzias latipes); settings: E2 spiked at 1.0 nM (B); MAC = 1.0 × 10^−5 M
T2 sequence (P50241 1-620): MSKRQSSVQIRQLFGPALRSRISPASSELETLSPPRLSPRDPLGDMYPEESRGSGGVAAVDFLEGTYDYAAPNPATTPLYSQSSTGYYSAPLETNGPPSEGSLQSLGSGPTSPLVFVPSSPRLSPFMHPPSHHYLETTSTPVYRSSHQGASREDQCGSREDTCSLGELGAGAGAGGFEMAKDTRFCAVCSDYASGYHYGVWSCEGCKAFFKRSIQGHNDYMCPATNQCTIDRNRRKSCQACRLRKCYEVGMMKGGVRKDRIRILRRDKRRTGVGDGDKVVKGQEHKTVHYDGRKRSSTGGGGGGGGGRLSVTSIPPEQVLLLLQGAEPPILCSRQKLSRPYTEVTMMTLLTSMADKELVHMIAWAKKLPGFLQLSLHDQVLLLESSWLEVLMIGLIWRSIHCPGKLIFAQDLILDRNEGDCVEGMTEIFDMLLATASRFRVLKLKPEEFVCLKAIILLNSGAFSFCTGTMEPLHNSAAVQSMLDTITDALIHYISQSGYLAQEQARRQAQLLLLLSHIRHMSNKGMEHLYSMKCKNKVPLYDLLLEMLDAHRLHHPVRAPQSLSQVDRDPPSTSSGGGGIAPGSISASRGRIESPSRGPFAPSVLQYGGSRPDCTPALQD

medaka ARβ (mArβ) [3] = biological target: T1, medaka ARβ (mArβ); experiment: Medaka ARβ reporter gene assay, antagonist assay; type: cell-based, Japanese medaka (Oryzias latipes); settings: 11‐KT spiked at 50 nM (D); MAC = 1.0 × 10^−5 M
[4] = system: Japanese medaka (Oryzias latipes); experiment: Fish Short‐Term Reproduction Assay; type: in vivo; settings: for GSI Female / GSI Male / HSI Female / HSI Male / Length Female / Length Male / Weight Female / Weight Male: completion of exposure
medaka Esr1 (mEsr1) [5] = biological target: T2, medaka Esr1 (mEsr1); experiment: cell-based; set-up: species or system Japanese medaka (Oryzias latipes)
[6] = 177 μg/L measured, 21 d, sig. ↑ vs control
[7] = 353 μg/L measured, 21 d, sig. ↑ vs control
[8] = 353 μg/L measured, 21 d, sig. ↓ vs control
[9] = measured concentration 54.4 μg/L
[10] = measured concentration 104 μg/L
[11] = measured concentration 177 μg/L
[12] = measured concentration 353 μg/L

How did the Agonistic activity (medaka ARβ (mArβ) [1]) turn out when `Oc1cc(Cl)ccc1Oc1ccc(Cl)cc1Cl` [TCS, Triclosan] was run?
The Agonistic activity was “NE (MAC = 1.0 × 10^−5 M)”.

And the Antagonistic activity (medaka Esr1 (mEsr1) [2])?
Its Antagonistic activity is “NE (MAC = 1.0 × 10^−5 M)^(B)”.

What about the Antagonistic activity (medaka ARβ (mArβ) [3]) of the same compound?
The Antagonistic activity was “NE (MAC = 1.0 × 10^−5 M)^(D)”.

What about the Fertility rate ([4]; 54.4 μg/L measured, 21 d) of the same compound?
The Fertility rate was 96 ± 3.3%.

And the “Hepatic VTG, female” value ([4]; 54.4 μg/L measured, 21 d)?
Its value is 616 ± 220 ng/mg‐liver.

What about the “Hepatic VTG, male” value ([4]; 54.4 μg/L measured, 21 d) of the same compound?
Its value is 3.3 ± 4.7 ng/mg‐liver.

And the Mortality ([4]; 54.4 μg/L measured, 21 d)?
Its Mortality is 4.2%.

What about the “Mortality, number of dead fish” value ([4]; 54.4 μg/L measured, 21 d) of the same compound?
Its value is 1.

And the “Number of fertilized eggs (per female per day)” value ([4]; 54.4 μg/L measured, 21 d)?
Its value is 25 ± 4.0.

And the “Number of total eggs (per female per day)” value ([4]; 54.4 μg/L measured, 21 d)?
The value was 26 ± 3.8.

And the “SSC female (joint plates with papillary processes)” value (from here on “SSC female”) ([4]; 54.4 μg/L measured, 21 d)?
Its value is 0 ± 0.

And the Fertility rate ([4]; 104 μg/L measured, 21 d)?
The Fertility rate was 98 ± 1.4%.

And the “Hepatic VTG, female” value ([4]; 104 μg/L measured, 21 d)?
The value was 698 ± 32 ng/mg‐liver.

And the “Hepatic VTG, male” value ([4]; 104 μg/L measured, 21 d)?
The value was 4.5 ± 2.7 ng/mg‐liver.

And the Mortality ([4]; 104 μg/L measured, 21 d)?
The Mortality was 13%.

And the “Mortality, number of dead fish” value ([4]; 104 μg/L measured, 21 d)?
Its value is 3.

And the “Number of fertilized eggs (per female per day)” value ([4]; 104 μg/L measured, 21 d)?
The value was 24 ± 1.0.

And the “Number of total eggs (per female per day)” value ([4]; 104 μg/L measured, 21 d)?
The value was 24 ± 1.1.

What about the “SSC female” value ([4]; 104 μg/L measured, 21 d) of the same compound?
The value was 0 ± 0.

And the Fertility rate ([4]; 177 μg/L measured, 21 d)?
Its Fertility rate is 97 ± 1.5%.

What about the “Number of fertilized eggs (per female per day)” value ([4]; 177 μg/L measured, 21 d) of the same compound?
The value was 18 ± 7.0.

What about the “Number of total eggs (per female per day)” value ([4]; 177 μg/L measured, 21 d) of the same compound?
The value was 19 ± 7.2.

What about the “SSC female” value ([4]; 177 μg/L measured, 21 d) of the same compound?
The value was 0 ± 0.

What about the “Hepatic VTG, female” value [4, 6] of the same compound?
Its value is 955 ± 73 ng/mg‐liver.

What about the Mortality [4, 6] of the same compound?
The Mortality was 29%.

And the “Mortality, number of dead fish” value [4, 6]?
The value was 7.

What about the “Hepatic VTG, male” value ([4]; 177 μg/L measured, 21 d, sig. ↓ vs control) of the same compound?
The value was 0.9 ± 0.1 ng/mg‐liver.

What about the Fertility rate ([4]; 353 μg/L measured, 21 d) of the same compound?
The Fertility rate was 98 ± 0.8%.

And the “SSC female” value ([4]; 353 μg/L measured, 21 d)?
Its value is 0 ± 0.

And the “Hepatic VTG, female” value [4, 7]?
The value was 1,111 ± 265 ng/mg‐liver.

What about the Mortality [4, 7] of the same compound?
Its Mortality is 50%.

What about the “Mortality, number of dead fish” value [4, 7] of the same compound?
Its value is 12.

And the “Hepatic VTG, male” value [4, 8]?
Its value is 1.0 ± 0.3 ng/mg‐liver.

And the “Number of fertilized eggs (per female per day)” value [4, 8]?
The value was 10 ± 1.9.

And the “Number of total eggs (per female per day)” value [4, 8]?
Its value is 10 ± 2.0.

What about the “Change of hepatic VTG levels in females (in words)” value ([4]; 21 d) of the same compound?
The value was “significant increase”.

What about the “Fecundity, number of total eggs (in words)” value ([4]; 21 d) of the same compound?
Its value is “statistically significant decrease”.

And the minimal effective concentration ([4]; Oryzias latipes, 504 h, read-out: LOECmVTG)?
The minimal effective concentration was over 0.353 µg/mL.

What about the “Fertility rate (in words)” value ([4]; chemicals with significant decrease of number of total eggs) of the same compound?
Its value is “no significant effect”.

What about the LOECTOX ([4]; lowest observed effect concentration on mortality) of the same compound?
The LOECTOX was 177 µg/L.

What about the “GSI Female” value [4, 9] of the same compound?
Its value is 7.3 ± 0.4%.

And the “GSI Male” value [4, 9]?
The value was 1.00 ± 0.13%.

What about the “HSI Female” value [4, 9] of the same compound?
Its value is 3.8 ± 0.40%.

What about the “HSI Male” value [4, 9] of the same compound?
Its value is 1.6 ± 0.23%.

What about the “Length Female” value [4, 9] of the same compound?
Its value is 33.5 ± 0.7 mm.

And the “Length Male” value [4, 9]?
Its value is 33.6 ± 0.7 mm.

What about the “Weight Female” value [4, 9] of the same compound?
Its value is 449 ± 11 mg.

What about the “Weight Male” value [4, 9] of the same compound?
The value was 379 ± 28 mg.

What about the “GSI Female” value [4, 10] of the same compound?
Its value is 7.5 ± 0.6%.

And the “GSI Male” value [4, 10]?
Its value is 1.00 ± 0.23%.

What about the “HSI Female” value [4, 10] of the same compound?
Its value is 3.7 ± 0.79%.

What about the “HSI Male” value [4, 10] of the same compound?
The value was 1.5 ± 0.09%.

And the “Length Female” value [4, 10]?
The value was 32.8 ± 1.1 mm.

And the “Length Male” value [4, 10]?
Its value is 34.8 ± 0.7 mm.

And the “Weight Female” value [4, 10]?
Its value is 409 ± 20 mg.

What about the “Weight Male” value [4, 10] of the same compound?
Its value is 417 ± 13 mg.

What about the “GSI Female” value [4, 11] of the same compound?
The value was 7.9 ± 1.4%.

What about the “GSI Male” value [4, 11] of the same compound?
The value was 0.90 ± 0.17%.

What about the “HSI Female” value [4, 11] of the same compound?
The value was 3.8 ± 0.30%.

What about the “HSI Male” value [4, 11] of the same compound?
The value was 1.4 ± 0.41%.

And the “Length Female” value [4, 11]?
The value was 32.4 ± 1.3 mm.

What about the “Length Male” value [4, 11] of the same compound?
Its value is 33.3 ± 0.9 mm.

And the “Weight Female” value [4, 11]?
The value was 425 ± 45 mg.

What about the “Weight Male” value [4, 11] of the same compound?
The value was 380 ± 66 mg.

What about the “GSI Female” value [4, 12] of the same compound?
Its value is 8.7 ± 1.1%.

What about the “GSI Male” value [4, 12] of the same compound?
The value was 1.20 ± 0.73%.

And the “HSI Female” value [4, 12]?
The value was 4.5 ± 0.23%.

And the “HSI Male” value [4, 12]?
Its value is 2.4 ± 1.08%.

What about the “Length Female” value [4, 12] of the same compound?
Its value is 33.2 ± 0.9 mm.

And the “Length Male” value [4, 12]?
Its value is 33.3 ± 1.5 mm.

What about the “Weight Female” value [4, 12] of the same compound?
The value was 437 ± 30 mg.

And the “Weight Male” value [4, 12]?
The value was 361 ± 57 mg.

What about the “Agonistic activity PC10” value (medaka Esr1 (mEsr1) [5]) of the same compound?
Its value is “PC10 = 2.0 × 10^−6 M”.

And the “In vitro positive: Esr” value (medaka Esr1 (mEsr1) [5]; mode of action in which EC50 or PC10 was obtained in RGA)?
Its value is “Esr”.

From PMC9297976 (Journal of Applied Toxicology, 2021)
